Data as given in paper PMC6540285, “Evaluation of Protein Kinase Inhibitors with PLK4 Cross-Over Potential in a Pre-Clinical Model of Cancer” (International Journal of Molecular Sciences, 2019).

Tests used:
RT and MB cells = experiment: Cell cycle analysis (PI flow cytometry); type: cell-based; conditions: 2µM
Protocol: Cell cycle analysis was performed by flow cytometry of cells stained with Propidium Iodide (PI) (Thermo Fisher Scientific, Carlsbad, CA, USA) according to manufacturer’s instructions. Cells treated with the top PLK4i candidates and 0.1% DMSO (control) were fixed in 80% ethanol overnight, stained with PI, and then subjected to flow cytometric analysis using a BD Fortessa instrument (BD Biosciences, San Jose, CA, USA). Data was analyzed using Modfit LT from Verity Software House (Topsham, ME, USA). All experiments were performed in triplicate.

ABL1 F317I = ABL1 F317I (Homo sapiens, UniProt P00519, F317I); experiment: SelectScreen kinase profiling, ZLYTE; type: biochemical
ALK = ALK (Homo sapiens, UniProt Q9UM73); experiment: SelectScreen kinase profiling, ZLYTE; type: biochemical
AMPK (A1/B2/G2) = AMPK (A1/B2/G2) (Homo sapiens, UniProt Q13131); experiment: SelectScreen kinase profiling, ZLYTE; type: biochemical
BLK = BLK (Homo sapiens, UniProt P51451); experiment: SelectScreen kinase profiling, ZLYTE; type: biochemical
DNA-PK = DNA-PK (Homo sapiens, UniProt P78527); experiment: SelectScreen kinase profiling, ZLYTE; type: biochemical
DYRK1B = DYRK1B (Homo sapiens, UniProt Q9Y463); experiment: SelectScreen kinase profiling, ZLYTE; type: biochemical
EEF2K = EEF2K (Homo sapiens, UniProt O00418); experiment: SelectScreen kinase profiling, ZLYTE; type: biochemical
FGFR3 = FGFR3 (Homo sapiens, UniProt P22607); experiment: SelectScreen kinase profiling, ZLYTE; type: biochemical; conditions: FGFR3, 10 µM
FGR = FGR (Homo sapiens, UniProt P09769); experiment: SelectScreen kinase profiling, ZLYTE; type: biochemical
FYN = FYN (Homo sapiens, UniProt P06241); experiment: SelectScreen kinase profiling, ZLYTE; type: biochemical
FYN A = FYN A (Homo sapiens, UniProt P06241); experiment: SelectScreen kinase profiling, LanthaScreen binding
GRK6 = GRK6 (Homo sapiens, UniProt P43250); experiment: SelectScreen kinase profiling, ZLYTE; type: biochemical; conditions: GRK6, 10 µM
GSK3B (GSK3 beta) = GSK3B (GSK3 beta) (Homo sapiens, UniProt P49841); experiment: SelectScreen kinase profiling, ZLYTE; type: biochemical
KIT D816V = KIT D816V (Homo sapiens, UniProt P10721, D816V); experiment: SelectScreen kinase profiling, LanthaScreen binding
MAP4K2 (GCK) = MAP4K2 (GCK) (Homo sapiens, UniProt Q12851); experiment: SelectScreen kinase profiling, ZLYTE; type: biochemical
MKNK2 (MNK2) = MKNK2 (MNK2) (Homo sapiens, UniProt Q9HBH9); experiment: SelectScreen kinase profiling, LanthaScreen binding
NEK9 = NEK9 (Homo sapiens, UniProt Q8TD19); experiment: SelectScreen kinase profiling, ZLYTE; type: biochemical; conditions: NEK9, 10 µM
NLK = NLK (Homo sapiens, UniProt Q9UBE8); experiment: SelectScreen kinase profiling, LanthaScreen binding
PLK4 = biological target: T1, PLK4 (Homo sapiens, UniProt O00444); experiment: as above; conditions: PLK4, 10 µM
T1 sequence (O00444 1-970): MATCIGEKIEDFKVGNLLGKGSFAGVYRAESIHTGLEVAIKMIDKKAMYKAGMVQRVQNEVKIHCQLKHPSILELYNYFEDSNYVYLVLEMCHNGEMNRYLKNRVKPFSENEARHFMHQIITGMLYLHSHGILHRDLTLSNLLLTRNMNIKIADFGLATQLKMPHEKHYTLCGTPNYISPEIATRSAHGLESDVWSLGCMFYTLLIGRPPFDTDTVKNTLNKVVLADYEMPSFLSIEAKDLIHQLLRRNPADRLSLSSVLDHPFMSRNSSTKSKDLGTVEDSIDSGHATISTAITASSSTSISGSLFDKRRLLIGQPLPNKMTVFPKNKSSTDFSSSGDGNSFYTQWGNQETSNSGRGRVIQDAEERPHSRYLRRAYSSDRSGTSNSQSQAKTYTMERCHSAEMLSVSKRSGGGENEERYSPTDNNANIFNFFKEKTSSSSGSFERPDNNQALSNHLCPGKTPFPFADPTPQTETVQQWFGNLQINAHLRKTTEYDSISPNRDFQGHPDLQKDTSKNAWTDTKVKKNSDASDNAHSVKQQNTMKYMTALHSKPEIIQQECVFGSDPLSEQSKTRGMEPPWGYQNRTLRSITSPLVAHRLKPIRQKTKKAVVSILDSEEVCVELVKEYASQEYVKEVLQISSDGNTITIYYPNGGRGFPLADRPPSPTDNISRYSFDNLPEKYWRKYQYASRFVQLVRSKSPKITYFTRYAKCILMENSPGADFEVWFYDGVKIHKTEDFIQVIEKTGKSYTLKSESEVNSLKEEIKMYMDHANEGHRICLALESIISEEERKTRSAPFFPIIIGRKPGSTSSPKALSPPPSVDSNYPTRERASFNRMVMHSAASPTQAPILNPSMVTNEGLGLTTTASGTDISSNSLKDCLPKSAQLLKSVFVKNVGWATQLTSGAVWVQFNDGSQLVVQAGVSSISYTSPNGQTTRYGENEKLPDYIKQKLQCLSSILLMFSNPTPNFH

PRKCE (PKC epsilon) = PRKCE (PKC epsilon) (Homo sapiens, UniProt Q02156); experiment: SelectScreen kinase profiling, ZLYTE; type: biochemical
PRKCH (PKC eta) = PRKCH (PKC eta) (Homo sapiens, UniProt P24723); experiment: SelectScreen kinase profiling, ZLYTE; type: biochemical
PRKCQ (PKC theta) = PRKCQ (PKC theta) (Homo sapiens, UniProt Q04759); experiment: SelectScreen kinase profiling, ZLYTE; type: biochemical
PRKD1 (PKC mu) = PRKD1 (PKC mu) (Homo sapiens, UniProt Q15139); experiment: SelectScreen kinase profiling, ZLYTE; type: biochemical
CYP3A4 = CYP3A4 (Homo sapiens, UniProt P08684); experiment: SelectScreen P450 Vivid biochemical assay; conditions: 10000nM
P450 2C19 = P450 2C19 (Homo sapiens, UniProt P33261); experiment: SelectScreen P450 Vivid biochemical assay; conditions: 10000nM; substrate EOMCC

CYP3A4, sequence (P08684 whole entry): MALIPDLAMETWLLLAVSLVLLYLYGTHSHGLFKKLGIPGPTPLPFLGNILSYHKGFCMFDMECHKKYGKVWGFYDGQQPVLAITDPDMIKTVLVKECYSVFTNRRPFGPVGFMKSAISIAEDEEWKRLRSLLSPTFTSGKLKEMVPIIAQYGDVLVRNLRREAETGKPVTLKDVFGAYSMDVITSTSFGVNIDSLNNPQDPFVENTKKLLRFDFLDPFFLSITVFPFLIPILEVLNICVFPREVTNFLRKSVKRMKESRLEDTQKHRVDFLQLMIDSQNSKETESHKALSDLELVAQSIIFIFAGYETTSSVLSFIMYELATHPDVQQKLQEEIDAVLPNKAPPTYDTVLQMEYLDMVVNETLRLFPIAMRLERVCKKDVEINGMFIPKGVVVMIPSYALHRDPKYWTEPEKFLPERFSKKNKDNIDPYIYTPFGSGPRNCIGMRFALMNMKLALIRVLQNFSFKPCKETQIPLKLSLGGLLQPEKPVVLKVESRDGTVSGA
FGFR3, sequence (P22607 23-806): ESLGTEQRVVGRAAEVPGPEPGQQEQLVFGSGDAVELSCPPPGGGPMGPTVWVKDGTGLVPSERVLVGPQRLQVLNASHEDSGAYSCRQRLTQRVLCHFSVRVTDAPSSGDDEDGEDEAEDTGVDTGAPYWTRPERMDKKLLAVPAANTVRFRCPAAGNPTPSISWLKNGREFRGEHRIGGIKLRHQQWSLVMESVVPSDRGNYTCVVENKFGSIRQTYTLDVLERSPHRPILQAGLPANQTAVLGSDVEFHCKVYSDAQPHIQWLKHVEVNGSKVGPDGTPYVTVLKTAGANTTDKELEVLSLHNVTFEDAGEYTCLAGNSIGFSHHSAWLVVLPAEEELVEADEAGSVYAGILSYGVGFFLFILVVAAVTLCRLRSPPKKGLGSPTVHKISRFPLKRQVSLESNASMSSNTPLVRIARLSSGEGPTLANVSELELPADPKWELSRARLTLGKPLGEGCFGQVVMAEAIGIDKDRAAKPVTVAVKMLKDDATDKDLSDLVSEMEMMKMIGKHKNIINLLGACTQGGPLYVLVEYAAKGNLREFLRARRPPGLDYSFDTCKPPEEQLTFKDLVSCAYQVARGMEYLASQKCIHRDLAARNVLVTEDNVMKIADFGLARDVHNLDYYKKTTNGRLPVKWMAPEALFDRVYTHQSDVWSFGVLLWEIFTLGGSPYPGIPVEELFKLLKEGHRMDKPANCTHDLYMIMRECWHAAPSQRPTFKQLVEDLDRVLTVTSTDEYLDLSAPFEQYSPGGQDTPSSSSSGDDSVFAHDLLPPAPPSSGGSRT
MAP4K2 (GCK), sequence (Q12851 whole entry): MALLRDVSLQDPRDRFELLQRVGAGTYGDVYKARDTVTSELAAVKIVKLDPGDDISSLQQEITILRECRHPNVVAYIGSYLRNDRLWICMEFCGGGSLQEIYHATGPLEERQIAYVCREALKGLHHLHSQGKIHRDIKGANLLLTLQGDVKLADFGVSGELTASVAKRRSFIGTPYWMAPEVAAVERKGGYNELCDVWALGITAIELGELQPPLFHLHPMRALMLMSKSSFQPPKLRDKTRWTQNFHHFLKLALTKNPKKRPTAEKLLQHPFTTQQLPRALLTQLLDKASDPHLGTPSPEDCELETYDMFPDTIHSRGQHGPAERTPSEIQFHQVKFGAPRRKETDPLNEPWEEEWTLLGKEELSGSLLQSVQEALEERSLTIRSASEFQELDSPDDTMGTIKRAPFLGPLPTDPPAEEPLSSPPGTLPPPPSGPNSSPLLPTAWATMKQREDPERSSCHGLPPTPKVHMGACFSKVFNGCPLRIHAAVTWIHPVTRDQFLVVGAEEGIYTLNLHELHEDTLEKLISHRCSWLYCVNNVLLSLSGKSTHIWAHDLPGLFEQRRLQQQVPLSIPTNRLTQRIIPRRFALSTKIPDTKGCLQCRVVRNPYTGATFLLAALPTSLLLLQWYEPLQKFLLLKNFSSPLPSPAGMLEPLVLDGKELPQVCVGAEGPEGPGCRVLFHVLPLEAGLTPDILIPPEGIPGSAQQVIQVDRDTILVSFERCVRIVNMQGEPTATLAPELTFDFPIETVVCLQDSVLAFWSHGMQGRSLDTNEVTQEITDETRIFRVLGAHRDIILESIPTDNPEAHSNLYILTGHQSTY
NEK9, sequence (Q8TD19 whole entry): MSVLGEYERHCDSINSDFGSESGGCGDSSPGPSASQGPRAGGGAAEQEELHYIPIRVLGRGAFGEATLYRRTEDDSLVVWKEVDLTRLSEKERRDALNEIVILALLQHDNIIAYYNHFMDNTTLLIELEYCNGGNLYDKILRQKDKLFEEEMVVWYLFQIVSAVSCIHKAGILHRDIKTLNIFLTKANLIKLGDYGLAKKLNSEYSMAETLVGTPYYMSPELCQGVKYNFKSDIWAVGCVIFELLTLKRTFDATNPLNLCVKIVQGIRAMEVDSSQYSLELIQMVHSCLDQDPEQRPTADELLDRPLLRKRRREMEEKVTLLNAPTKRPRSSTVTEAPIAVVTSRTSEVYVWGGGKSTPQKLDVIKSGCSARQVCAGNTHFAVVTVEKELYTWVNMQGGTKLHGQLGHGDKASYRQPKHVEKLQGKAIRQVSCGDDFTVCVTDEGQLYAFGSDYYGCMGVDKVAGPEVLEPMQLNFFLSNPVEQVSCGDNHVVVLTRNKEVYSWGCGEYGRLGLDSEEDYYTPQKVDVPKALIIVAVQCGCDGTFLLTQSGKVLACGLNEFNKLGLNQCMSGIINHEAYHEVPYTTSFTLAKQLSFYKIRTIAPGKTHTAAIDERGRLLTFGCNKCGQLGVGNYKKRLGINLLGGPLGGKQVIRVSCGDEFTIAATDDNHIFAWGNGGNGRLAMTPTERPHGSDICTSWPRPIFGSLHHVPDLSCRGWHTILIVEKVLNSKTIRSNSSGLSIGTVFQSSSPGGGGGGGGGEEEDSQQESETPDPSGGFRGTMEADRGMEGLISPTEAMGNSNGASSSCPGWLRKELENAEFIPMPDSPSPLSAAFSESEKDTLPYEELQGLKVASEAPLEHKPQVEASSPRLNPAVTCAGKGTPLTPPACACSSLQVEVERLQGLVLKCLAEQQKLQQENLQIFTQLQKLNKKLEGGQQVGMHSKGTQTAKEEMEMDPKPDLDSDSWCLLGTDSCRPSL
PRKD1 (PKC mu), sequence (Q15139 whole entry): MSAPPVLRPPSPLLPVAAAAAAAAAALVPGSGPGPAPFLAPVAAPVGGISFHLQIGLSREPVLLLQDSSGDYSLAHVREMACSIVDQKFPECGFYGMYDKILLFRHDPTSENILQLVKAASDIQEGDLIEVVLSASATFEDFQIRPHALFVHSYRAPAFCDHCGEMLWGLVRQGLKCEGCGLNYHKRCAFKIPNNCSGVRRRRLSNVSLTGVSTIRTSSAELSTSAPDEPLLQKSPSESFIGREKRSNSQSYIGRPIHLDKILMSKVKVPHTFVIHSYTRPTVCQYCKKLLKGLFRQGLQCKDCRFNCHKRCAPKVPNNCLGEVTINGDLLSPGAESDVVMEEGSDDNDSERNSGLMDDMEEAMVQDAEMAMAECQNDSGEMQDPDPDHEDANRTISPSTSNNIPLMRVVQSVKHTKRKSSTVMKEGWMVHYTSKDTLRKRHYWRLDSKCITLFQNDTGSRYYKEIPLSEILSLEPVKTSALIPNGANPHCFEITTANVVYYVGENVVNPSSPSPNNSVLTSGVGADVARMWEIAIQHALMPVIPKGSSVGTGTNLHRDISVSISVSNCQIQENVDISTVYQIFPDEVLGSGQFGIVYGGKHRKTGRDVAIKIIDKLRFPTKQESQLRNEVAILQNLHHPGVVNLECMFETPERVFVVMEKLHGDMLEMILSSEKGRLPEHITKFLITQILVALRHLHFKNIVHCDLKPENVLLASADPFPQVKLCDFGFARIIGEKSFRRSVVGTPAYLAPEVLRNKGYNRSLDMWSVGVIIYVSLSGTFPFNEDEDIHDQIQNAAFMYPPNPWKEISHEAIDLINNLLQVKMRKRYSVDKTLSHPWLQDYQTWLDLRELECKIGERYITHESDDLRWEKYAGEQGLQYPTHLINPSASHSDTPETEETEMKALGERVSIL
GSK3B (GSK3 beta), sequence (P49841 whole entry): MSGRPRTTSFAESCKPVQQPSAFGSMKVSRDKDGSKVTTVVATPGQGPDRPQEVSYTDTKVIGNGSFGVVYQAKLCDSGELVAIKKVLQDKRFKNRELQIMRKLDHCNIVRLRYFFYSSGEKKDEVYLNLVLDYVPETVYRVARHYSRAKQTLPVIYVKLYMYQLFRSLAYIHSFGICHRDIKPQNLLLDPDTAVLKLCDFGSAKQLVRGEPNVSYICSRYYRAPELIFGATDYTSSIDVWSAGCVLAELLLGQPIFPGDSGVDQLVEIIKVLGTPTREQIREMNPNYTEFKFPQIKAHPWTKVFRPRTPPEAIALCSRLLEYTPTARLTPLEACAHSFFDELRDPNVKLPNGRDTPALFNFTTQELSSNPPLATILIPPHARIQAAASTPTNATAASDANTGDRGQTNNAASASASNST
MKNK2 (MNK2), sequence (Q9HBH9 whole entry): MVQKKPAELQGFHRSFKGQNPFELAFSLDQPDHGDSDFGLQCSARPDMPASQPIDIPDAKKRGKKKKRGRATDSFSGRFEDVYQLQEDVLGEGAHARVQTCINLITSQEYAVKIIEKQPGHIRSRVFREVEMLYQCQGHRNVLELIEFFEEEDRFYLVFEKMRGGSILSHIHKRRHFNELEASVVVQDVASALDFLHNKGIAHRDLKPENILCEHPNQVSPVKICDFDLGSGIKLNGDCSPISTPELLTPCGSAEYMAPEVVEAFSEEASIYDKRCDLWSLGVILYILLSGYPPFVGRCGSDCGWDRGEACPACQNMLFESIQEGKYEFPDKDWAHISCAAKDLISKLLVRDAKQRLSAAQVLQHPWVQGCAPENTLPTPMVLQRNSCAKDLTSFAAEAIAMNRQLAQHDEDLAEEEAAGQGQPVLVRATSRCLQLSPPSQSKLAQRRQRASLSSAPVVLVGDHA

## O=C(c1ccc(/C=C/c2n[nH]c3ccccc23)cc1)N1CCNCC1 [KW-2449]
RT and MB cells
  polyploidy (cell cycle analysis): induction of polyploidy with 2µM KW-2449 in all cell lines except DAOY
ABL1 F317I
  inhibition at 10 µM: 94%
ALK
  inhibition at 10 µM: 101%
AMPK (A1/B2/G2)
  inhibition at 10 µM: 99%
BLK
  inhibition at 10 µM: 89%
DNA-PK
  inhibition at 10 µM: 24%
DYRK1B
  inhibition at 10 µM: 91%
EEF2K
  inhibition at 10 µM: -1%
FGFR3
  inhibition at 10 µM: 97%
FGR
  inhibition at 10 µM: 99%
FYN
  inhibition at 10 µM: 94%
FYN A
  inhibition at 10 µM: 72%
GRK6
  inhibition at 10 µM: 62%
GSK3B (GSK3 beta)
  inhibition at 10 µM: 66%
KIT D816V
  inhibition at 10 µM: 40%
MAP4K2 (GCK)
  inhibition at 10 µM: 101%
MKNK2 (MNK2)
  inhibition at 10 µM: 68%
NEK9
  inhibition at 10 µM: 70%
NLK
  inhibition at 10 µM: -2%
PLK4
  inhibition at 10 µM: 61%
PRKCE (PKC epsilon)
  inhibition at 10 µM: 10%
PRKCH (PKC eta)
  inhibition at 10 µM: -2%
PRKCQ (PKC theta)
  inhibition at 10 µM: 32%
PRKD1 (PKC mu)
  inhibition at 10 µM: 97%
CYP3A4; substrate BOMCC
  % Inhibition 3A4 BOMCC: 63%
CYP3A4; substrate DBOMF
  % Inhibition 3A4 DBOMF: 46%
P450 2C19
  % Inhibition 2C19 EOMCC: 51%
